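Five concentrations, 48 hours, 96-well plates. The concentration for 50% growth inhibition is given as GI50. TGI: total growth inhibition.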
Experiments:
Assay in all cases: NCI tumour cell line growth inhibition, 48 h
786-0 renal = test system: 786-0 renal
A498 renal = test system: A498 renal
A549 NSCLC = test system: A549 NSCLC
ACHN renal = test system: ACHN renal
BT-549 breast = test system: BT-549 breast
CAKI-1 renal = test system: CAKI-1 renal
CCRF-CEM leukemia = test system: CCRF-CEM leukemia
COLO 205 colon = test system: COLO 205 colon
DU-145 prostate = test system: DU-145 prostate
EKVX NSCLC = test system: EKVX NSCLC
HCC-2998 colon = test system: HCC-2998 colon
HCT-116 colon = test system: HCT-116 colon
HCT-15 colon = test system: HCT-15 colon
HL-60(TB) leukemia = test system: HL-60(TB) leukemia
HOP-62 NSCLC = test system: HOP-62 NSCLC
HOP-92 NSCLC = test system: HOP-92 NSCLC
HS 578T breast = test system: HS 578T breast
HT29 colon = test system: HT29 colon
IGROV1 ovarian = test system: IGROV1 ovarian
K-562 leukemia = test system: K-562 leukemia
KM12 colon = test system: KM12 colon
LOX IMVI melanoma = test system: LOX IMVI melanoma
M14 melanoma = test system: M14 melanoma
MALME-3M melanoma = test system: MALME-3M melanoma
MCF7 breast = test system: MCF7 breast
MDA-MB-231 breast = test system: MDA-MB-231 breast
MDA-MB-435 = test system: MDA-MB-435
MOLT-4 leukemia = test system: MOLT-4 leukemia
NCI-H226 lung = test system: NCI-H226 lung
NCI-H23 lung = test system: NCI-H23 lung
NCI-H460 lung = test system: NCI-H460 lung
NCI-H522 lung = test system: NCI-H522 lung
NCI/ADR-RES ovarian = test system: NCI/ADR-RES ovarian
OVCAR-3 ovarian = test system: OVCAR-3 ovarian
OVCAR-4 ovarian = test system: OVCAR-4 ovarian
OVCAR-5 ovarian = test system: OVCAR-5 ovarian
OVCAR-8 ovarian = test system: OVCAR-8 ovarian
PC-3 prostate = test system: PC-3 prostate
RPMI-8226 leukemia = test system: RPMI-8226 leukemia
RXF 393 renal = test system: RXF 393 renal
SF-268 CNS = test system: SF-268 CNS
SF-295 CNS = test system: SF-295 CNS
SF-539 CNS = test system: SF-539 CNS
SK-MEL-2 melanoma = test system: SK-MEL-2 melanoma
SK-MEL-28 melanoma = test system: SK-MEL-28 melanoma
SK-MEL-5 melanoma = test system: SK-MEL-5 melanoma
SK-OV-3 ovarian = test system: SK-OV-3 ovarian
SN12C renal = test system: SN12C renal
SNB-19 CNS = test system: SNB-19 CNS
SNB-75 CNS = test system: SNB-75 CNS
SR leukemia = test system: SR leukemia
SW-620 colon = test system: SW-620 colon
T-47D breast = test system: T-47D breast
TK-10 renal = test system: TK-10 renal
U251 CNS = test system: U251 CNS
UACC-257 melanoma = test system: UACC-257 melanoma
UACC-62 melanoma = test system: UACC-62 melanoma
UO-31 renal = test system: UO-31 renal

CN(c1ccc(F)cc1)S(=O)(=O)c1ccc(-c2cnc(C3CC3)o2)cc1 gave a GI50 (786-0 renal) of 108 nM, a TGI (786-0 renal) greater than 41700 nM and a GI50 (A498 renal) of 43 nM. The TGI (A498 renal) was 493 nM, the GI50 (A549 NSCLC) was 180 nM and the TGI (A549 NSCLC) was greater than 100000 nM. The GI50 (ACHN renal) was 274 nM, the TGI (ACHN renal) was greater than 73100 nM and the GI50 (BT-549 breast) was 410 nM. It also gave a TGI (BT-549 breast) of 14100 nM, a GI50 (CAKI-1 renal) of 73.3 nM and a TGI (CAKI-1 renal) greater than 100000 nM. The GI50 (CCRF-CEM leukemia) was 51.8 nM, the TGI (CCRF-CEM leukemia) was greater than 100000 nM and the GI50 (COLO 205 colon) was 98.8 nM. The TGI (COLO 205 colon) was 2400 nM, the GI50 (DU-145 prostate) was 279 nM and the TGI (DU-145 prostate) was greater than 76700 nM. For the same molecule, the GI50 (EKVX NSCLC) was 289 nM, the TGI (EKVX NSCLC) was greater than 100000 nM and the GI50 (HCC-2998 colon) was 375 nM. The TGI (HCC-2998 colon) was greater than 50100 nM, the GI50 (HCT-116 colon) was 41.3 nM and the GI50 (HCT-15 colon) was 49.9 nM. For the same molecule, the TGI (HCT-15 colon) was greater than 50000 nM, the GI50 (HL-60(TB) leukemia) was 28.8 nM and the TGI (HL-60(TB) leukemia) was 306 nM. For the same molecule, the GI50 (HOP-62 NSCLC) was 145 nM, the TGI (HOP-62 NSCLC) was greater than 100000 nM and the GI50 (HOP-92 NSCLC) was 1210 nM. It also gave a TGI (HOP-92 NSCLC) of 11300 nM, a GI50 (HS 578T breast) of 176 nM and a TGI (HS 578T breast) greater than 100000 nM. For the same molecule, the GI50 (HT29 colon) was 44.3 nM, the TGI (HT29 colon) was 14600 nM and the GI50 (IGROV1 ovarian) was 66 nM. It also gave a TGI (IGROV1 ovarian) greater than 100000 nM, a GI50 (K-562 leukemia) of 39.5 nM and a TGI (K-562 leukemia) greater than 43800 nM. For the same molecule, the GI50 (KM12 colon) was 54.5 nM, the TGI (KM12 colon) was 32200 nM and the GI50 (LOX IMVI melanoma) was 69 nM. For the same molecule, the TGI (LOX IMVI melanoma) was 14100 nM, the GI50 (M14 melanoma) was 52 nM and the TGI (M14 melanoma) was 19800 nM. For the same molecule, the GI50 (MALME-3M melanoma) was 11600 nM, the TGI (MALME-3M melanoma) was 47600 nM and the GI50 (MCF7 breast) was 39.6 nM. For the same molecule, the TGI (MCF7 breast) was 50900 nM, the GI50 (MDA-MB-231 breast) was 404 nM and the TGI (MDA-MB-231 breast) was greater than 39000 nM. The GI50 (MDA-MB-435) was 28.4 nM, the TGI (MDA-MB-435) was 94.8 nM and the GI50 (MOLT-4 leukemia) was 80.6 nM. The TGI (MOLT-4 leukemia) was greater than 37500 nM, the GI50 (NCI-H226 lung) was 239 nM and the TGI (NCI-H226 lung) was 30800 nM. The GI50 (NCI-H23 lung) was 358 nM, the TGI (NCI-H23 lung) was greater than 100000 nM and the GI50 (NCI-H460 lung) was 46.9 nM. The TGI (NCI-H460 lung) was 13300 nM, the GI50 (NCI-H522 lung) was 78.9 nM and the TGI (NCI-H522 lung) was 1700 nM. The GI50 (NCI/ADR-RES ovarian) was 57.4 nM, the TGI (NCI/ADR-RES ovarian) was 21400 nM and the GI50 (OVCAR-3 ovarian) was 41.5 nM. The TGI (OVCAR-3 ovarian) was 15800 nM, the GI50 (OVCAR-4 ovarian) was 772 nM and the TGI (OVCAR-4 ovarian) was greater than 100000 nM. The GI50 (OVCAR-5 ovarian) was 495 nM, the TGI (OVCAR-5 ovarian) was greater than 100000 nM and the GI50 (OVCAR-8 ovarian) was 553 nM. The TGI (OVCAR-8 ovarian) was greater than 100000 nM, the GI50 (PC-3 prostate) was 136 nM and the TGI (PC-3 prostate) was greater than 67800 nM. It also gave a GI50 (RPMI-8226 leukemia) of 60.6 nM, a TGI (RPMI-8226 leukemia) of 2510 nM and a GI50 (RXF 393 renal) of 69.8 nM. The TGI (RXF 393 renal) was 366 nM, the GI50 (SF-268 CNS) was 1120 nM and the TGI (SF-268 CNS) was greater than 100000 nM. For the same molecule, the GI50 (SF-295 CNS) was 52 nM, the TGI (SF-295 CNS) was 25100 nM and the GI50 (SF-539 CNS) was 71.8 nM. For the same molecule, the TGI (SF-539 CNS) was 1870 nM, the GI50 (SK-MEL-2 melanoma) was 3740 nM and the TGI (SK-MEL-2 melanoma) was 40900 nM. The GI50 (SK-MEL-28 melanoma) was 2600 nM, the TGI (SK-MEL-28 melanoma) was greater than 100000 nM and the GI50 (SK-MEL-5 melanoma) was 84.2 nM. It also gave a TGI (SK-MEL-5 melanoma) of 5920 nM, a GI50 (SK-OV-3 ovarian) of 2520 nM and a TGI (SK-OV-3 ovarian) greater than 94600 nM. It also gave a GI50 (SN12C renal) of 887 nM, a TGI (SN12C renal) of 39100 nM and a GI50 (SNB-19 CNS) of 102 nM. The TGI (SNB-19 CNS) was greater than 100000 nM, the GI50 (SNB-75 CNS) was 12.4 nM and the TGI (SNB-75 CNS) was 25800 nM. For the same molecule, the GI50 (SR leukemia) was 31.5 nM, the GI50 (SW-620 colon) was 66.4 nM and the TGI (SW-620 colon) was greater than 100000 nM. The GI50 (T-47D breast) was 75.9 nM, the TGI (T-47D breast) was 71300 nM and the GI50 (TK-10 renal) was 26400 nM. The TGI (TK-10 renal) was greater than 100000 nM, the GI50 (U251 CNS) was 69.4 nM and the TGI (U251 CNS) was greater than 39100 nM. It also gave a GI50 (UACC-257 melanoma) of 11100 nM, a TGI (UACC-257 melanoma) of 52600 nM and a GI50 (UACC-62 melanoma) of 48.1 nM. It also gave a TGI (UACC-62 melanoma) of 19500 nM, a GI50 (UO-31 renal) of 766 nM and a TGI (UO-31 renal) greater than 94100 nM.

Source: PubChem BioAssay (NCI)
